# Experimental data published in paper PMC11672637, “7-O-Carboxylic Acid-Substituted 3-O-Alkyl Difluoroquercetin; An Aztreonam-Potentiating Agent Against Carbapenemase-Producing Pseudomonas aeruginosa Through Simultaneous Inhibition of Metallo-β-Lactamase and Efflux Pump” (Antibiotics, 2024).
# Like-named read-outs stand apart in the source and are kept apart here.
# Columns and labels:
# PA-031, blaNDM = assay: MIC / checkerboard with ATM; format: cell-based, P. aeruginosa; conditions: for MIC: Pseudomonas aeruginosa, read-out: MIC of ATM with 5, PA-031
# PA-039, blaNDM = assay: MIC / checkerboard with ATM; format: cell-based, P. aeruginosa; conditions: for MIC: Pseudomonas aeruginosa, read-out: MIC of ATM with 5, PA-039
# PA-027, blaIMP = assay: MIC / checkerboard with ATM; format: cell-based, P. aeruginosa; conditions: for MIC: Pseudomonas aeruginosa, read-out: MIC of ATM with 5, PA-027
# PA-038, blaNDM = assay: MIC / checkerboard with ATM; format: cell-based, P. aeruginosa; conditions: for MIC: Pseudomonas aeruginosa, read-out: MIC of ATM with 5, PA-038
# PA-044, blaNDM = assay: MIC / checkerboard with ATM; format: cell-based, P. aeruginosa; conditions: for MIC: Pseudomonas aeruginosa, read-out: MIC of ATM with 5, PA-044
# PA-042, blaIMP/NDM = assay: MIC / checkerboard with ATM; format: cell-based, P. aeruginosa; conditions: for MIC: Pseudomonas aeruginosa, read-out: MIC of ATM with 5, PA-042
# [1] = system: wild-type P. aeruginosa (ATCC 27853); assay: Time–kill assay; format: cell-based; conditions: for Log CFU/mL, ATM + 5: 24 h
# Description: Aliquots (50 μL) were taken from the incubation mixture at regular time intervals (t = 0, 3, 6, and 24 h), serially diluted in 0.85% NaCl solution, and plated on BAP. Bacterial colonies were counted, and the data are presented as the means of at least three independent experiments.
structure (smiles),measurement,setting,value
"CC(C)(C)CCOc1c(-c2ccc(F)c(F)c2)oc2cc(OCC(=O)O)cc(O)c2c1=O [Compound 5, 2-((2-(3,4-Difluorophenyl)-3-(3,3-dimethylbutoxy)-5-hydroxy-4-oxo-4H-chromen-7-yl)oxy)acetic Acid]",Susceptibility to ATM,"PA-031, blaNDM; PA-031, ATM/5","S (S (sensitive, MIC ≤ 8 mg/L))"
same,FD (fold decrease in MIC of ATM with 5),"PA-031, blaNDM; PA-031, lowest-FICI combination",4
same,MIC,"PA-031, blaNDM; 5 at 1 mg/L",2 µg/mL
same,MIC,"PA-031, blaNDM; 5 at 2 mg/L",2 µg/mL
same,MIC,"PA-031, blaNDM; 5 at 4 mg/L",2 µg/mL
same,MIC,"PA-031, blaNDM; 5 at 8 mg/L",1 µg/mL
same,MIC,"PA-031, blaNDM; 5 at 16 mg/L",1 µg/mL
same,MIC,"PA-031, blaNDM; 5 at 32 mg/L",1 µg/mL
same,MIC,"PA-031, blaNDM; 5 at 64 mg/L",1 µg/mL
same,Activity (FICI class),"PA-039, blaNDM; PA-039","S (S (Synergy, FICI ≤ 0.5))"
same,Concentrations of ATM and 5 at lowest FICI (ATM/5),"PA-039, blaNDM; PA-039",4/8
same,Lowest FICI (ATM/5),"PA-039, blaNDM; PA-039",0.27
same,Minimum concentration of 5 to make sensitive to ATM,"PA-039, blaNDM; PA-039",4 mg/L
same,Susceptibility to ATM,"PA-039, blaNDM; PA-039, ATM/5","S (S (sensitive, MIC ≤ 8 mg/L))"
same,FD (fold decrease in MIC of ATM with 5),"PA-039, blaNDM; PA-039, lowest-FICI combination",4
same,MIC,"PA-039, blaNDM; 5 at 1 mg/L",16 µg/mL
same,MIC,"PA-039, blaNDM; 5 at 2 mg/L",16 µg/mL
same,MIC,"PA-039, blaNDM; 5 at 4 mg/L",8 µg/mL
same,MIC,"PA-039, blaNDM; 5 at 8 mg/L",4 µg/mL
same,MIC,"PA-039, blaNDM; 5 at 16 mg/L",4 µg/mL
same,MIC,"PA-039, blaNDM; 5 at 32 mg/L",4 µg/mL
same,MIC,"PA-039, blaNDM; 5 at 64 mg/L",4 µg/mL
same,Activity (FICI class),"PA-027, blaIMP; PA-027","S (S (Synergy, FICI ≤ 0.5))"
same,Concentrations of ATM and 5 at lowest FICI (ATM/5),"PA-027, blaIMP; PA-027",8/4
same,Lowest FICI (ATM/5),"PA-027, blaIMP; PA-027",0.26
same,Minimum concentration of 5 to make sensitive to ATM,"PA-027, blaIMP; PA-027",4 mg/L
same,Susceptibility to ATM,"PA-027, blaIMP; PA-027, ATM/5","S (S (sensitive, MIC ≤ 8 mg/L))"
same,FD (fold decrease in MIC of ATM with 5),"PA-027, blaIMP; PA-027, lowest-FICI combination",4
same,MIC,"PA-027, blaIMP; 5 at 1 mg/L",32 µg/mL
same,MIC,"PA-027, blaIMP; 5 at 2 mg/L",16 µg/mL
same,MIC,"PA-027, blaIMP; 5 at 4 mg/L",8 µg/mL
same,MIC,"PA-027, blaIMP; 5 at 8 mg/L",4 µg/mL
same,MIC,"PA-027, blaIMP; 5 at 16 mg/L",2 µg/mL
same,MIC,"PA-027, blaIMP; 5 at 32 mg/L",2 µg/mL
same,MIC,"PA-027, blaIMP; 5 at 64 mg/L",2 µg/mL
same,Activity (FICI class),"PA-038, blaNDM; PA-038","S (S (Synergy, FICI ≤ 0.5))"
same,Concentrations of ATM and 5 at lowest FICI (ATM/5),"PA-038, blaNDM; PA-038",4/8
same,Lowest FICI (ATM/5),"PA-038, blaNDM; PA-038",0.27
same,Minimum concentration of 5 to make sensitive to ATM,"PA-038, blaNDM; PA-038",4 mg/L
same,Susceptibility to ATM,"PA-038, blaNDM; PA-038, ATM/5","S (S (sensitive, MIC ≤ 8 mg/L))"
same,FD (fold decrease in MIC of ATM with 5),"PA-038, blaNDM; PA-038, lowest-FICI combination",4
same,MIC,"PA-038, blaNDM; 5 at 1 mg/L",16 µg/mL
same,MIC,"PA-038, blaNDM; 5 at 2 mg/L",16 µg/mL
same,MIC,"PA-038, blaNDM; 5 at 4 mg/L",8 µg/mL
same,MIC,"PA-038, blaNDM; 5 at 8 mg/L",4 µg/mL
same,MIC,"PA-038, blaNDM; 5 at 16 mg/L",4 µg/mL
same,MIC,"PA-038, blaNDM; 5 at 32 mg/L",4 µg/mL
same,MIC,"PA-038, blaNDM; 5 at 64 mg/L",4 µg/mL
same,Activity (FICI class),"PA-044, blaNDM; PA-044","S (S (Synergy, FICI ≤ 0.5))"
same,Concentrations of ATM and 5 at lowest FICI (ATM/5),"PA-044, blaNDM; PA-044",4/8
same,Lowest FICI (ATM/5),"PA-044, blaNDM; PA-044",0.27
same,Minimum concentration of 5 to make sensitive to ATM,"PA-044, blaNDM; PA-044",4 mg/L
same,Susceptibility to ATM,"PA-044, blaNDM; PA-044, ATM/5","S (S (sensitive, MIC ≤ 8 mg/L))"
same,FD (fold decrease in MIC of ATM with 5),"PA-044, blaNDM; PA-044, lowest-FICI combination",4
same,MIC,"PA-044, blaNDM; 5 at 1 mg/L",16 µg/mL
same,MIC,"PA-044, blaNDM; 5 at 2 mg/L",16 µg/mL
same,MIC,"PA-044, blaNDM; 5 at 4 mg/L",8 µg/mL
same,MIC,"PA-044, blaNDM; 5 at 8 mg/L",4 µg/mL
same,MIC,"PA-044, blaNDM; 5 at 16 mg/L",4 µg/mL
same,MIC,"PA-044, blaNDM; 5 at 32 mg/L",4 µg/mL
same,MIC,"PA-044, blaNDM; 5 at 64 mg/L",4 µg/mL
same,Activity (FICI class),"PA-042, blaIMP/NDM; PA-042","I (I (indifference, 0.5 < FICI ≤ 4))"
same,Concentrations of ATM and 5 at lowest FICI (ATM/5),"PA-042, blaIMP/NDM; PA-042",1/4
same,Lowest FICI (ATM/5),"PA-042, blaIMP/NDM; PA-042",0.51
same,Susceptibility to ATM,"PA-042, blaIMP/NDM; PA-042, ATM/5","S (S (sensitive, MIC ≤ 8 mg/L))"
same,FD (fold decrease in MIC of ATM with 5),"PA-042, blaIMP/NDM; PA-042, lowest-FICI combination",2
same,MIC,"PA-042, blaIMP/NDM; 5 at 1 mg/L",2 µg/mL
same,MIC,"PA-042, blaIMP/NDM; 5 at 2 mg/L",2 µg/mL
same,MIC,"PA-042, blaIMP/NDM; 5 at 4 mg/L",1 µg/mL
same,MIC,"PA-042, blaIMP/NDM; 5 at 8 mg/L",1 µg/mL
same,MIC,"PA-042, blaIMP/NDM; 5 at 16 mg/L",1 µg/mL
same,MIC,"PA-042, blaIMP/NDM; 5 at 32 mg/L",1 µg/mL
same,MIC,"PA-042, blaIMP/NDM; 5 at 64 mg/L",1 µg/mL
same,"Diff. (ATM + 5, 24 h vs initial inoculum)",[1]; ATM 1/2 MIC + 5 at 8 mg/L,−0.04 Log CFU/mL
same,Diff. (ATM + 5 vs ATM only),[1]; ATM 1/2 MIC + 5 at 8 mg/L,−3.51 Log CFU/mL
same,"Synergistic activity, interpretation",[1]; ATM 1/2 MIC + 5 at 8 mg/L,Synergy (a ≥ 2 log10 decrease in CFU/mL for the combination of ATM and 5 compared to ATM alone after 24 h of incubation)
same,"Log CFU/mL, ATM + 5",[1]; ATM 1/2 MIC + 5 at 8 mg/L,5.80 Log CFU/mL
same,"Diff. (ATM + 5, 24 h vs initial inoculum)",[1]; ATM 1/4 MIC + 5 at 8 mg/L,−0.04 Log CFU/mL
same,Diff. (ATM + 5 vs ATM only),[1]; ATM 1/4 MIC + 5 at 8 mg/L,−3.77 Log CFU/mL
same,"Synergistic activity, interpretation",[1]; ATM 1/4 MIC + 5 at 8 mg/L,Synergy (a ≥ 2 log10 decrease in CFU/mL for the combination of ATM and 5 compared to ATM alone after 24 h of incubation)
same,"Log CFU/mL, ATM + 5",[1]; ATM 1/4 MIC + 5 at 8 mg/L,5.80 Log CFU/mL
same,"Diff. (ATM + 5, 24 h vs initial inoculum)",[1]; ATM 1 MIC + 5 at 8 mg/L,−5.57 Log CFU/mL
same,Diff. (ATM + 5 vs ATM only),[1]; ATM 1 MIC + 5 at 8 mg/L,−7.75 Log CFU/mL
same,"Synergistic activity, interpretation",[1]; ATM 1 MIC + 5 at 8 mg/L,Synergy (a ≥ 2 log10 decrease in CFU/mL for the combination of ATM and 5 compared to ATM alone after 24 h of incubation)
same,"Log CFU/mL, ATM + 5",[1]; ATM 1 MIC + 5 at 8 mg/L,0.27 Log CFU/mL
same,"Diff. (ATM + 5, 24 h vs initial inoculum)",[1]; ATM 2 MIC + 5 at 8 mg/L,−5.84 Log CFU/mL
same,Diff. (ATM + 5 vs ATM only),[1]; ATM 2 MIC + 5 at 8 mg/L,−0.17 Log CFU/mL
same,"Log CFU/mL, ATM + 5",[1]; ATM 2 MIC + 5 at 8 mg/L,0.00 Log CFU/mL
